Results: patent publication US12263146B2, “Non-linear dosing of mirdametinib” (SpringWorks Therapeutics Inc., priority 2022, dated 2025)

Tested on: patients ≥2 and <25 years with brain cancer
Experiment: Phase I/II trial of single agent mirdametinib in children, adolescents and young adults with brain cancer
Assay type: in vivo, human
Procedure: Example 1: Phase I/II Evaluation of Single Agent Mirdametinib, a Brain-Penetrant MEK1/2 Inhibitor, for the Treatment of Children, Adolescents, and Young Adults with Brain Cancer A multi-arm […] trial of mirdametinib is to be conducted in patients ≥2 and <25 years with brain cancer. Phase I requires participants have no prior exposure to MEK inhibitors and recurrent/progressive disease with biopsy-proven evidence of MAPK pathway activation. Three escalating dose levels (2 mg/m^2/dose BID, 2.5 mg/m^2/dose BID and 3 mg/m^2/dose BID) are planned using a rolling 6 design. The median age enrolled in the study is 10 years old (3-21).

## O=C(NOC[C@H](O)CO)c1ccc(F)c(F)c1Nc1ccc(I)cc1F (single isomer, unassigned) [mirdametinib]
2, 2.5 and 3 mg/m^2/dose BID, patients with brain cancer
  MEK related retinopathy or cardiopathy: No MEK related retinopathy or cardiopathy is observed
2, 2.5 and 3 mg/m^2/dose BID, patients with recurrent/progressive brain cancer with MAPK pathway activation
  disease progressions: No disease progressions
All three dose levels (2, 2.5 and 3 mg/m^2/dose BID), patients with brain cancer, no prior MEK inhibitor
  dose-limiting toxicities: No dose-limiting toxicities
Dosed continuously in patients with brain cancer
  clinical activity (overall statement): clinically promising
